Results published in the supplement of paper PMC13380429.

How the values were obtained:
Settings in all cases: 72 h
[1] = tested on: Calu-3; test: cell viability relative to DMSO; higher = less toxic
[2] = tested on: Vero E6; test: as above
[3] = tested on: U2OS; test: as above
[4] = tested on: Caco-2; test: as above
[5] = tested on: HepG2; test: as above
[6] = tested on: Calu-3; test: drug sensitivity score (DSS) for viability; higher = more toxic; extreme values may be limits of the assay
[7] = tested on: Vero E6; test: as above
[8] = tested on: U2OS; test: as above
[9] = tested on: Caco-2; test: as above
[10] = tested on: HepG2; test: as above
[11] = tested on: Calu-3; test: relative viability EC50 (midpoint between 100% and the lowest measured viability); higher = less toxic
[12] = tested on: Vero E6; test: as above
[13] = tested on: U2OS; test: as above
[14] = tested on: HepG2; test: as above
[15] = tested on: Caco-2; test: as above

| SMILES | cell viability ([1]; 1 nM) [%] | cell viability ([1]; 10 nM) [%] | cell viability ([1]; 100 nM) [%] | cell viability ([1]; 1000 nM) [%] | cell viability ([1]; 10000 nM) [%] | cell viability ([2]; 1 nM) [%] | cell viability ([2]; 10 nM) [%] | cell viability ([2]; 100 nM) [%] | cell viability ([2]; 1000 nM) [%] | cell viability ([2]; 10000 nM) [%] | cell viability ([3]; 1 nM) [%] | cell viability ([3]; 10 nM) [%] | cell viability ([3]; 100 nM) [%] | cell viability ([3]; 1000 nM) [%] | cell viability ([3]; 10000 nM) [%] | cell viability ([4]; 1 nM) [%] | cell viability ([4]; 10 nM) [%] | cell viability ([4]; 100 nM) [%] | cell viability ([4]; 1000 nM) [%] | cell viability ([4]; 10000 nM) [%] | cell viability ([5]; 1 nM) [%] | cell viability ([5]; 10 nM) [%] | cell viability ([5]; 100 nM) [%] | cell viability ([5]; 1000 nM) [%] | cell viability ([5]; 10000 nM) [%] | drug sensitivity score [6] | drug sensitivity score [7] | drug sensitivity score [8] | drug sensitivity score [9] | drug sensitivity score [10] | relative viability EC50 [11] [µM] | relative viability EC50 [12] [µM] | relative viability EC50 [13] [µM] | relative viability EC50 [14] [µM] | relative viability EC50 [15] [µM] |
| --- | --- | --- | --- | --- | --- | --- | --- | --- | --- | --- | --- | --- | --- | --- | --- | --- | --- | --- | --- | --- | --- | --- | --- | --- | --- | --- | --- | --- | --- | --- | --- | --- | --- | --- | --- |
| C[C@H]1O[C@@H](n2cc(F)c(=O)[nH]c2=O)[C@H](O)[C@@H]1O [doxifluridine] | 98.6 | 116 | 91.3 | 98.9 | 90.9 | 108 | 96.1 | 103 | 105 | 87.5 | 99.9 | 99.4 | 100 | 101 | 90.6 | 82.5 | 106 | 93.3 | 99.3 | 65.6 | 96.6 | 96.1 | 76.3 | 108 | 56.6 | 0 | 0 | 0 | 1.7 | 1.8 | > 10 | > 10 | > 10 |  |  |
| CCN1CCN(c2cc3c(cc2F)c(=O)c(C(=O)O)cn3C2CC2)CC1 [enrofloxacin] |  |  |  |  |  |  |  |  |  |  |  |  |  |  |  |  |  |  |  |  |  |  |  |  |  | 0 | 0 | 0 |  | 0 |  |  |  |  |  |
| Oc1ccc([C@H]2COc3cc(O)ccc3C2)cc1 [equol] | 97.2 | 111 | 99.2 | 92.6 | 91.2 | 98.6 | 102 | 96.2 | 95.5 | 96.6 | 98.5 | 103 | 97.9 | 102 | 99.6 |  |  |  |  |  | 94.2 | 105 | 110 | 94.8 | 97.3 | 0 | 0 | 0 |  | 0 | > 10 | > 10 | > 10 | > 10 |  |
| COC(=O)Nc1nc2cc(C(=O)c3ccc(F)cc3)ccc2[nH]1 [flubendazole] | 94.2 | 87.9 | 98.8 | 97.6 | 72.3 | 94.9 | 102 | 92.4 | 79 | 41.8 | 98.2 | 107 | 102 | 95.4 | 54.6 | 93 | 96.7 | 101 | 87.3 | 54.6 | 96.8 | 95.7 | 92.4 | 63.4 | 40.4 | 1.5 | 5.5 | 3.1 | 4.3 | 7.9 |  | 1.38 |  | 0.619 |  |
| Cc1cnc(C(=O)NCCc2ccc(S(=O)(=O)NC(=O)NC3CCCCC3)cc2)cn1 [glipizide] |  |  |  |  |  |  |  |  |  |  |  |  |  |  |  |  |  |  |  |  |  |  |  |  |  | 0 | 0 | 0 |  | 0 |  |  |  |  |  |
| c1coc(CNc2ncnc3[nH]cnc23)c1 [kinetin] | 95.7 | 100 | 101 | 98.4 | 99.3 |  |  |  |  |  |  |  |  |  |  | 111 | 104 | 106 | 98.9 | 96.6 | 110 | 108 | 99 | 98.7 | 109 | 0 |  |  | 0 | 0 | > 10 |  |  | > 10 | > 10 |
| Cc1ccc(NC(=O)C2(c3ccc4c(c3)OC(F)(F)O4)CC2)nc1-c1cccc(C(=O)O)c1 [lumacaftor] | 113 | 103 | 101 | 98.6 | 108 |  |  |  |  |  |  |  |  |  |  | 106 | 103 | 106 | 92.3 | 93.8 |  |  |  |  |  | 0 |  |  | 0 |  | > 10 |  |  |  | > 10 |
| CN1CCN(c2c(F)cc3c(=O)c(C(=O)O)cn4c3c2SCC4)CC1 [rufloxacin] | 92.1 | 103 | 97.5 | 84.4 | 101 | 99.9 | 101 | 96.4 | 101 | 95.7 | 99.8 | 100 | 94.7 | 104 | 96.8 | 95.1 | 105 | 93.9 | 91.7 | 73.8 | 98.9 | 99.5 | 104 | 103 | 92.2 | 0 | 0 | 0 | 1.7 | 0 | > 10 | > 10 | > 10 | > 10 |  |
| CC(=O)c1ccc2c(c1)C(=O)C1(CC1)O2 [spizofurone] |  |  |  |  |  |  |  |  |  |  |  |  |  |  |  |  |  |  |  |  |  |  |  |  |  | 0 | 0 | 0 |  | 0 |  |  |  |  |  |
| COc1ccc(-n2nc(CCC(=O)N(C)O)cc2-c2ccc(Cl)cc2)cc1 [tepoxalin] | 97.5 | 110 | 102 | 106 | 110 | 98.2 | 99.9 | 99.5 | 99.9 | 64.7 | 97.1 | 95.7 | 96.7 | 94.6 | 61.8 | 103 | 112 | 116 | 99.4 | 59.8 | 107 | 106 | 96.4 | 96.6 | 73.8 | 0 | 1.7 | 2.8 | 2.1 | 1.6 | > 10 |  |  |  |  |
